Test systems include A498; A549; ACHN; COLO 205; DLD-1; LOX IMVI; Malme-3M; NCI-H522; RPMI-8226; SN12C; SW-620; U-251; UACC-257; Hs-578T; MCF7; MDA-MB-231; MDA-MB-435; NCI/ADR-RES; PC-3; T47D.
Holding throughout (assay): DTP human tumour cell line panel, 48 h

Here are results for 11 compounds from ChEMBL document CHEMBL1201862, “PubChem BioAssay data set” (2004).

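Each compound was tested at five concentrations against cells in 96-well plates for 48 hours. The concentration for 50% growth inhibition is given as GI50.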 Active and inactive are the calls of the source. No stated cut-off is given here; in the data, active = GI50 up to about 1.1 µM and inactive = higher.

A word on the GI50: it is the concentration at which growth is held to half of that of the control.

With `CN(C)C(=S)/N=c1\sn(C)/c(=N\C(=S)N(C)C)n1C`, the GI50 in the assay on A498 was 65.6 µM (inactive); with A549, 82.8 µM (inactive); in the assay on ACHN it was > 100 µM (inactive); with COLO 205, > 100 µM (inactive); in the assay on DLD-1, > 100 µM (inactive); in the assay on LOX IMVI, 45.1 µM (inactive). Besides, the GI50 in the assay on Malme-3M was 19.5 µM (inactive); with NCI-H522, 29.4 µM (inactive); with RPMI-8226, > 100 µM (inactive); in the assay on SN12C it was > 100 µM (inactive); in the assay on SW-620, > 100 µM (inactive); in the assay with U-251, 85.3 µM (inactive). The GI50 in the assay on UACC-257 is > 100 µM (inactive).

On to `CC(/C=C/C(=O)c1sc(-n2nc(-c3ccccc3)cc2-c2ccccc2)nc1C)=C\c1ccccc1`, for which the GI50 in the assay with A498 was > 10 µM (inactive); in the assay with A549, 38.8 µM (inactive); in the assay with ACHN, 25.6 µM (inactive); in the assay on COLO 205 it was > 10 µM (inactive); in the assay on DLD-1, 29.9 µM (inactive); with LOX IMVI it was 71.9 µM (inactive). Further, the GI50 with Malme-3M was 35.8 µM (inactive); with NCI-H522, 19 µM (inactive); in the assay with RPMI-8226, 19.3 µM (inactive); in the assay on SN12C, 40.3 µM (inactive); in the assay on SW-620 it was > 10 µM (inactive); in the assay with U-251, 65.2 µM (inactive). Also, the GI50 in the assay on UACC-257 was 47.1 µM (inactive).

Take `CCN(c1ccc(Br)cc1)c1c(Br)c(=O)nc2ccccn12`: the GI50 in the assay on A498 is > 100 µM (inactive); in the assay with A549 it was > 100 µM (inactive); in the assay on ACHN, > 100 µM (inactive); in the assay on COLO 205 it was > 100 µM (inactive); in the assay on DLD-1 it was > 100 µM (inactive); in the assay with Malme-3M it was 64.9 µM (inactive). Besides, the GI50 was 62.2 µM (inactive) in the assay with NCI-H522; 74.5 µM (inactive) in the assay with RPMI-8226; > 100 µM (inactive) with SN12C; > 100 µM (inactive) with SW-620; > 100 µM (inactive) with U-251.

Consider `Cc1cc(/N=C2\C=C(Nc3cc(C)on3)C(=O)c3ccccc32)no1`, for which the GI50 in the assay on A498 is > 100 µM (inactive); in the assay with A549 it was 31.2 µM (inactive); in the assay with ACHN it was > 64.3 µM (inactive); in the assay with COLO 205 it was 31.3 µM (inactive); in the assay on DLD-1, > 100 µM (inactive); in the assay on Hs-578T, 13.2 µM (inactive). Further, the GI50 in the assay on LOX IMVI was 8.71 µM (inactive); in the assay with MCF7, 7.46 µM (inactive); with MDA-MB-231, 12.9 µM (inactive); in the assay with MDA-MB-435, 7.24 µM (inactive); with Malme-3M it was 21.5 µM (inactive); with NCI-H522 it was > 100 µM (inactive). In addition, the GI50 is 69 µM (inactive) in the assay with NCI/ADR-RES; > 100 µM (inactive) in the assay on PC-3; > 100 µM (inactive) in the assay with RPMI-8226; > 80.9 µM (inactive) with SN12C; > 100 µM (inactive) with SW-620; 47.3 µM (inactive) with T47D. In addition, the values for the GI50 in the assay with U-251 and with UACC-257 were 30.1 µM (inactive) and 13.9 µM (inactive), respectively.

Turning to `CC1OC(OC2CC(O)(C(=O)CO)Cc3c(O)c4c(c(O)c32)C(=O)c2ccccc2C4=O)CC(N)C1O` (configuration not stated), the GI50 is < 0.01 µM (active) with A498; < 0.01 µM (active) in the assay with A549; < 0.01 µM (active) in the assay with ACHN; < 0.017 µM (active) in the assay on COLO 205; < 0.01 µM (active) in the assay on DLD-1; 0.0206 µM (active) in the assay on Hs-578T. The GI50 is < 0.01 µM (active) in the assay on LOX IMVI; 0.431 µM (active) in the assay with MDA-MB-231; 0.156 µM (active) in the assay with MDA-MB-435; < 0.01 µM (active) in the assay on Malme-3M; < 0.0183 µM (active) with NCI-H522; 0.0301 µM (active) in the assay on PC-3. Moreover, the GI50 is < 0.01 µM (active) in the assay with RPMI-8226; < 0.0112 µM (active) in the assay with SN12C; < 0.01 µM (active) in the assay with SW-620; < 0.01 µM (active) in the assay with T47D; < 0.01 µM (active) in the assay on U-251; 0.054 µM (active) with UACC-257.

Turning to `COC(=O)C12OCC34C(CC5C(C)=C(O)C(=O)CC5(C)C3C(O)C1O)OC(=O)C(OC(=O)C=C(C)C)C24` (configuration not stated), the GI50 is > 500 µM (inactive) in the assay with A498; > 500 µM (inactive) in the assay on A549; 0.247 µM (active) with ACHN; > 500 µM (inactive) with COLO 205; 108 µM (inactive) in the assay on DLD-1; < 0.215 µM (active) in the assay on Hs-578T. Further, the GI50 with LOX IMVI is 283 µM (inactive); in the assay on MCF7, 256 µM (inactive); in the assay with MDA-MB-231, 0.0234 µM (active); in the assay with MDA-MB-435, < 0.215 µM (active); in the assay on Malme-3M, 228 µM (inactive); with NCI-H522 it was 301 µM (inactive). Besides, the GI50 in the assay on NCI/ADR-RES was > 500 µM (inactive); in the assay with PC-3, 0.23 µM (active); with RPMI-8226, 361 µM (inactive); in the assay with SN12C, > 500 µM (inactive); with SW-620 it was > 500 µM (inactive); in the assay with T47D, 0.0132 µM (active). Further, the values for the GI50 in the assay with U-251 and in the assay with UACC-257 were 316 µM (inactive) and 423 µM (inactive), respectively.

Consider `Cc1nc(-n2nc(-c3ccccc3)cc2-c2ccccc2)sc1C(=O)CC(=O)C(=O)Nc1ccc(Cl)c(Cl)c1`, for which the GI50 in the assay on A498 was 40.7 µM (inactive); with A549, > 100 µM (inactive); in the assay on ACHN, 25.1 µM (inactive); in the assay on COLO 205 it was 47.3 µM (inactive); in the assay with DLD-1 it was 34 µM (inactive); with LOX IMVI it was 71 µM (inactive). Moreover, the GI50 is > 100 µM (inactive) with Malme-3M; 32.6 µM (inactive) with NCI-H522; 41.8 µM (inactive) in the assay on RPMI-8226; 91.6 µM (inactive) in the assay with SN12C; 65.9 µM (inactive) in the assay on SW-620; 78.2 µM (inactive) in the assay with U-251. Besides, the GI50 in the assay with UACC-257 is 44.5 µM (inactive).

Consider `CC(C)N(C(=O)C12C3C4C5(C#N)C3C1(C#N)C5C42I)C(C)C` (configuration not stated), for which the GI50 in the assay on A498 was > 100 µM (inactive); in the assay on A549, > 59 µM (inactive); in the assay with ACHN, > 100 µM (inactive); with COLO 205, > 45.4 µM (inactive); in the assay with DLD-1, > 42.6 µM (inactive); in the assay with LOX IMVI, > 49.5 µM (inactive). Also, the GI50 was > 100 µM (inactive) with Malme-3M; > 33.7 µM (inactive) with NCI-H522; > 46.1 µM (inactive) with RPMI-8226; > 100 µM (inactive) in the assay with SN12C; > 41.4 µM (inactive) in the assay on SW-620; > 100 µM (inactive) with U-251. In the assay with UACC-257, the GI50 is > 100 µM (inactive).

Consider `COC(=O)[C@]12CC=C3O[C@@H]4OC5(CCCCC5)O[C@@H]4C3[C@@H]1C(=O)CCC2=O` (some centres not stated), for which the GI50 with A498, in the assay with A549, in the assay on ACHN, in the assay with COLO 205, in the assay on DLD-1 and in the assay on LOX IMVI was > 100 µM (inactive) each time. Moreover, the GI50 with Malme-3M was > 100 µM (inactive); with NCI-H522, 83.4 µM (inactive); in the assay on RPMI-8226, > 100 µM (inactive); with SN12C it was > 100 µM (inactive); with SW-620, > 100 µM (inactive); in the assay with U-251, > 100 µM (inactive). For the same compound, in the assay on UACC-257, the GI50 was > 100 µM (inactive).

Consider `c1cc(-c2cn3c(n2)SCC3)ccn1`, for which the GI50 was > 100 µM (inactive) with A498; > 100 µM (inactive) in the assay with A549; > 100 µM (inactive) in the assay with ACHN; > 57.8 µM (inactive) in the assay with COLO 205; > 75.7 µM (inactive) with DLD-1; > 59.2 µM (inactive) with LOX IMVI. The GI50 in the assay on Malme-3M is > 100 µM (inactive); with NCI-H522, > 100 µM (inactive); with RPMI-8226, > 65.5 µM (inactive); in the assay on SN12C, > 100 µM (inactive); with SW-620, > 25.2 µM (inactive); with U-251 it was > 73.3 µM (inactive). Also, the GI50 in the assay on UACC-257 was > 100 µM (inactive).

`CCCCCCCCCCCCCCCC(=O)OCC(C[As](=O)(O)O)OC(=O)CCCCCCCCCCCCCCC` (configuration not stated): the GI50 was > 100 µM (inactive) in the assay on A498; > 100 µM (inactive) in the assay on A549; > 71.6 µM (inactive) in the assay with ACHN; > 100 µM (inactive) in the assay with COLO 205; > 100 µM (inactive) in the assay on DLD-1; 58.5 µM (inactive) in the assay on Hs-578T. The GI50 in the assay with LOX IMVI was > 100 µM (inactive); in the assay with MCF7, > 100 µM (inactive); in the assay with MDA-MB-231, > 100 µM (inactive); in the assay on MDA-MB-435, > 100 µM (inactive); in the assay with Malme-3M, > 74.8 µM (inactive); in the assay with NCI-H522, > 100 µM (inactive). Besides, the GI50 in the assay with NCI/ADR-RES is > 100 µM (inactive); with PC-3, > 100 µM (inactive); in the assay with RPMI-8226, > 100 µM (inactive); in the assay with SN12C, > 74.5 µM (inactive); in the assay on SW-620, > 50.9 µM (inactive); in the assay on T47D it was > 100 µM (inactive). The GI50 with U-251 was > 65.6 µM (inactive); with UACC-257, > 100 µM (inactive).
